Source: patent US4410535A, “Aza-bicyclo-benzamide derivatives and pharmaceutical compositions and use thereof” (Beecham Group Limited, priority 1980, dated 1983)

Legend:
Type in all cases: in vivo
[1] = test system: vomiting response to apomorphine HCl; test: Anti-emetic activity in the dog (apomorphine HCl induced vomiting); conditions: Canis lupus familiaris, sc, 30 min before apomorphine HCl 0.1 mg/kg s.c.
Protocol: I. Anti-emetic acitivity in the dog
Compounds were administered subcutaneously 30 minutes prior to administration of a standard dose of apomorphine HCl (0.1 mg/kg subcutaneously) and the vomiting response compared to that obtained when the same animals were dosed with apomorphine HCl and vehicle only.
(§1) The tests I and II shown above for anti-emetic and CNS activity respectively were used for the comparison testing of representative Compound 1 with 4-amino-5-chloro-2-methoxy-N-(3'β-[8'-benzyl]-8-azabicyclo[3.2.1]octyl)benzamide (A'). Compound A' was chosen because of the compounds specifically disclosed in European Patent Application No. 793029978 and U.S. Pat. No. 4,273,778 it has the best anti-emetic activity and is the structurally closest compound to compound 1. Other compounds of the Examples were also submitted to tests I and II.

Dopamine Receptor = test: Dopamine receptor blocking activity in the CNS: inhibition of apomorphine induced climbing in the mouse; conditions: s.c. (table footnote), apomorphine 1 mg/kg s.c. induced climbing
[2] = Therapeutic ratio for anti-emetic activity based upon CNS effects (tests I and II); conditions: relative to compound A'
Description: as §1

[3] = test system: gastric motility inhibited by 6,7-ADTN; test: Gastric motility testing in the rat: reversal of the inhibitory effect of 6,7-ADTN; conditions: s.c., 10 minutes after 6,7-ADTN 1 mg/kg s.c.; conscious chronic gastric fistula rat
Protocol: III. Gastric Motility Testing in the rat
The compounds were tested for ability to reverse the inhibitory effect of 6,7-ADTN on gastric motility as recorded by an open tipped catheter in the conscious chronic gastric fistula rat. Administration of 1 mg/kg s.c. of 6,7-ADTN reduced basal gastric motor activity and this was reversed by the administration of 0.008 mg/kg s.c. of compound 1. administered 10 minutes after the 6,7-ADTN. […] For subcutaneous testing the compound was dissolved in water by the addition of tartaric acid (1/2 mole per mole of compound).

Row | Structure (SMILES) | ED50 [1] | CNS activity (ED50) (Dopamine Receptor) | improvement of therapeutic ratio for anti-emetic activity based upon CNS effects, compared with compound A' [2] | dose reversing the 6,7-ADTN inhibition of gastric motor activity [3]
1 | COc1cc(N)c(S(C)(=O)=O)cc1C(=O)N[C@@H]1C[C@H]2CC[C@@H](C1)N2Cc1ccccc1 [Compound 1, 4-Amino-2-methoxy-5-methylsulphonyl-N-[3-β-(8-benzyl-8-azabicyclo[3.2.1]octyl)]benzamide] | 0.002 mg/kg | 3.5 mg/kg | more than 300 times | 0.008 mg/kg
2 | CCS(=O)(=O)c1cc(C(=O)N[C@@H]2C[C@H]3CC[C@@H](C2)N3Cc2ccccc2)c(OC)cc1N [Compound 2, 4-Amino-5-ethylsulphonyl-2-methoxy N-[3-β-(8-benzyl-8azabicyclo{3,2,1}octyl)]benzamide] | 0.01 mg/kg | 3.5 mg/kg |  | 
3 | COc1cc(N)c(S(C)(=O)=O)cc1C(=O)N[C@@H]1C[C@H]2CC[C@@H](C1)N2C [Compound 3, 4-Amino-2-methoxy-5-methylsulphonyl-N-[3β-(8-methyl-8-azabicyclo[3.2.1]octyl)]benzamide] | 0.5 mg/kg | 80 mg/kg |  | 
4 | COc1cc(N)c(Cl)cc1C(=O)N[C@@H]1C[C@H]2CC[C@@H](C1)N2Cc1ccccc1 [Compound A', 4-amino-5-chloro-2-methoxy-N-(3'β-[8'-benzyl]-8-azabicyclo[3.2.1]octyl)benzamide, reference compound] | 0.0005 mg/kg | 0.0029 mg/kg |  | 
